# According to PubChem BioAssay AID2022 (NMMLSC, 2009):
# Active and inactive are the calls of the source. The rule behind the calls is not given here.
# Target: Cell division control protein 42 homolog (Homo sapiens) (UniProt P60953)
# Test: wild-type Cdc42 GTP-binding inhibitors, SAR follow-up, biochemical, bead-based multiplex flow cytometry, additional SAR set (AID 2022)
# Details: fluorescent GTP binding
# Chain of Cell division control protein 42 homolog (Homo sapiens) (P60953 whole entry, looked up): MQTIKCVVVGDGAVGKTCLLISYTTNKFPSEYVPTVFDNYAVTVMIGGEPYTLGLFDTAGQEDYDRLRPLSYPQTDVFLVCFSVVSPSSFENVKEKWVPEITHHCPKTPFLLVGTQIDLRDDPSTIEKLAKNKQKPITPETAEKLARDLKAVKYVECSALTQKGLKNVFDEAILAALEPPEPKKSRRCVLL
row,SMILES,EC50
1,O=C1C(c2c(O)[nH]c3ccc(Br)cc23)=Nc2ccccc21,> 30 µM (inactive)
2,O=Nc1c(-c2c(O)[nH]c3c(Br)cccc23)[nH]c2ccccc12,> 30 µM (inactive)
3,O=C1C(c2c(O)[nH]c3c(Br)cccc23)=Nc2ccccc21,> 30 µM (inactive)
4,O=C1C(c2c(O)[nH]c3c(F)cccc23)=Nc2ccccc21,> 30 µM (inactive)
5,O=Nc1c(-c2c(O)[nH]c3c(Cl)cccc23)[nH]c2ccccc12,> 30 µM (inactive)
6,O=Nc1c(-c2c(O)[nH]c3ccccc23)[nH]c2ccccc12,> 30 µM (inactive)
7,O=C1C(c2c(O)[nH]c3c(Cl)cccc23)=Nc2ccccc21,inactive
8,O=C1C(c2c(O)[nH]c3ccccc23)=Nc2ccccc21,> 30 µM (inactive)
9,O=Nc1c(-c2c(O)[nH]c3ccc(Br)cc23)[nH]c2ccccc12,> 30 µM (inactive)
10,O=C1N=c2ccccc2=C1c1[nH]c(=O)[nH]c1O,> 30 µM (inactive)
11,O=C1N=c2ccccc2=C1c1[nH]c(=S)[nH]c1O,> 30 µM (inactive)
12,O=Nc1c(-c2c(O)[nH]c3c(F)cccc23)[nH]c2ccccc12,inactive

# Same assay, conditions: fluorescent GTP binding, measured here: Ki for Cdc42 wildtype
row,SMILES,Ki
1,N#Cc1c(-c2ccc(Cl)cc2)c(C(=O)c2ccccc2)n(S(=O)(=O)c2ccc([N+](=O)[O-])cc2)c1N,1.52 µM
2,COc1ccc(S(=O)(=O)n2c(N)c(C#N)c(-c3cncc(Br)c3)c2C(=O)c2ccccc2)cc1,4.81 µM
3,CC(C)Cc1ccc([C@H](C)C(=O)O)cc1,3.51 µM
4,O=C1C(c2c(O)[nH]c3c(Cl)cccc23)=Nc2ccccc21,0.01 µM
5,COc1ccc(-c2c(C#N)c(N)n(S(C)(=O)=O)c2C(=O)c2ccccc2)cc1Br,2.37 µM
6,O=Nc1c(-c2c(O)[nH]c3c(F)cccc23)[nH]c2ccccc12,5.93 µM
